Assay results reported in ChEMBL document CHEMBL1201862, “PubChem BioAssay data set” (2004).
The source made the active and inactive calls.

Experiments:
[1] = target: ADP-ribosylation factor GTPase-activating protein 1 (Rattus norvegicus, UniProt Q62848); experiment: Fluorescence polarization-based biochemical high throughput dose response screening assay to identify inhibitors of ADP-ribosylation factor GTPase activating protein 1 (ARFGAP1).; assay type: functional
[2] = target: 5-hydroxytryptamine receptor 2A (Mus musculus, UniProt P35363); assay type: functional, cell-based;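 also: CHO-K1 cells with tagged receptor and beta-arrestin; agonist potency measured as compound-induced activation of the receptor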
Sequence of 5-hydroxytryptamine receptor 2A (P35363 whole entry): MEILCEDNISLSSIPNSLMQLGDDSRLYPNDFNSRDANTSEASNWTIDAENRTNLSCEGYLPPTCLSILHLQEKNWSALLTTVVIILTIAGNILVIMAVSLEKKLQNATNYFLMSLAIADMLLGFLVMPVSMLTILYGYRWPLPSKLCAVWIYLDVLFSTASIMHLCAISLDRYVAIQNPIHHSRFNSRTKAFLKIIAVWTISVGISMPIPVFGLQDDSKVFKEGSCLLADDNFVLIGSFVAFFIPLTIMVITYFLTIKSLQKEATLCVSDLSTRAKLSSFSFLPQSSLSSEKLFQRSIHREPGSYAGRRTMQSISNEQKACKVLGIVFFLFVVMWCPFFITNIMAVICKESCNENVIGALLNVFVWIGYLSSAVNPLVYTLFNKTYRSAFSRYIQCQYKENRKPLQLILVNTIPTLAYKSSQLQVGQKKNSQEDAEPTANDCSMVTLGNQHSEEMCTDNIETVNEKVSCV

[3] = target: Mu-type opioid receptor (Homo sapiens, UniProt P35372); assay type: functional, cell-based;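 also: U2OS cells with beta-arrestin recruitment to OPRM1 by beta-gal complementation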
Sequence of Mu-type opioid receptor (P35372 whole entry): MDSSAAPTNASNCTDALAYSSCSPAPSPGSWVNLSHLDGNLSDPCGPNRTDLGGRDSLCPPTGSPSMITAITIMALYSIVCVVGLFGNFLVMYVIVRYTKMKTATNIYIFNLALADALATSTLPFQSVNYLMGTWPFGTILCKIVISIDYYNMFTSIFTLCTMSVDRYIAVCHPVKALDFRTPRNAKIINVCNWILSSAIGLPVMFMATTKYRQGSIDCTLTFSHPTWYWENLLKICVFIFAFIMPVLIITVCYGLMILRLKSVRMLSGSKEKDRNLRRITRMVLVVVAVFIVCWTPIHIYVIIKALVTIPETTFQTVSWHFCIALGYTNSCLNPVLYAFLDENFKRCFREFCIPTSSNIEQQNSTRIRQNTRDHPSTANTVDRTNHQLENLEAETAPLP

[4] = cytotoxicity toward MDA-MB-231 breast cancer cells – cell-based, CellTiter-Glo luminescence, cherry-pick, cytotoxicity control for RAD54 inhibitor project, dose response (AID 651692); assay type: functional
[5] = target: Neurotensin receptor type 1 (Homo sapiens, UniProt P30989); assay type: functional;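 also: Image-based confirmatory dose-response assay measuring agonist activity at NTR1; NTR1-expressing U2OS osteosarcoma cells imaged for beta-arrestin GFP spot formation; agonist potency where compounds increase beta-arrestin recruitment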
Sequence of Neurotensin receptor type 1 (P30989 whole entry): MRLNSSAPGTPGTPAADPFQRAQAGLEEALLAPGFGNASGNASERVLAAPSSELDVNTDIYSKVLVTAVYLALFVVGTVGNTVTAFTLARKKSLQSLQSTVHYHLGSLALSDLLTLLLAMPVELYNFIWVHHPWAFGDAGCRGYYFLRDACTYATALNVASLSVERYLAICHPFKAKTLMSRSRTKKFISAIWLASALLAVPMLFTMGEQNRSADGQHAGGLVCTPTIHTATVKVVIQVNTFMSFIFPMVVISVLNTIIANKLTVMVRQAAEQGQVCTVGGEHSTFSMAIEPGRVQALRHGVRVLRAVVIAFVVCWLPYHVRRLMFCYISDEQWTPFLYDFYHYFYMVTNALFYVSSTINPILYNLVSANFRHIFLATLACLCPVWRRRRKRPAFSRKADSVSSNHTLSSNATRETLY

[6] = target: DNA repair and recombination protein RAD54-like (Homo sapiens, UniProt Q92698); experiment: RAD54 Holliday junction migration blockers – biochemical, fluorescence, cherry-picked samples, dose series, confirmation (AID 651657); assay type: functional
Sequence of DNA repair and recombination protein RAD54-like (Q92698 whole entry): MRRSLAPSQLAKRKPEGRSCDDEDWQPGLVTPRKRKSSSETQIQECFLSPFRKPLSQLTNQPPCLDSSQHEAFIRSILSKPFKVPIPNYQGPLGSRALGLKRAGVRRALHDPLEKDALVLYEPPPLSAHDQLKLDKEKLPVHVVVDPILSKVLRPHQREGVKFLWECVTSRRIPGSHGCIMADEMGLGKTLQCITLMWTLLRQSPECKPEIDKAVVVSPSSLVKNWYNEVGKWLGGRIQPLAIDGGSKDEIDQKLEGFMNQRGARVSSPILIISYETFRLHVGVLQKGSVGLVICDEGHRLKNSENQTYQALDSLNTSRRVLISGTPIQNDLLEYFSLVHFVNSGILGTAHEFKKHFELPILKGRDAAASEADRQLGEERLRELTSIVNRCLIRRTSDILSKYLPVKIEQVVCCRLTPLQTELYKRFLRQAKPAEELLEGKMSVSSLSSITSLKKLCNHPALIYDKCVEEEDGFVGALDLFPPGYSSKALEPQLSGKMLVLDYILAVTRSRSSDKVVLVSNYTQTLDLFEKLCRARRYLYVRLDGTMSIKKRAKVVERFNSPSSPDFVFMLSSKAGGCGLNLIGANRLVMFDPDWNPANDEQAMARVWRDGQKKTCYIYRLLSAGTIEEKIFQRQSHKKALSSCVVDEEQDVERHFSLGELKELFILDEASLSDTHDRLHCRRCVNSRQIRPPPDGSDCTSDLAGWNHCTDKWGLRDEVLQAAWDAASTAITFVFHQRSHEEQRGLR

[7] = target: T1, Small ubiquitin-related modifier 1 (Homo sapiens, UniProt P63165); experiment: SUMO1 protein-protein binding blockers, potency – biochemical, FRET, dose response (AID 624383); assay type: functional; conditions: read-out: IC50_Mean
T1 sequence (P63165 whole entry): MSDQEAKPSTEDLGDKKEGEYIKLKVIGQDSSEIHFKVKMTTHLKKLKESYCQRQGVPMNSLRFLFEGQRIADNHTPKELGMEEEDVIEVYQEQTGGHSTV

[8] = target: T2, Hexokinase HKDC1 (Homo sapiens, UniProt Q2TB90); experiment: inhibition of HKDC1 glucose phosphorylation – biochemical, W721R variant, dose response (AID 504729); assay type: functional
T2 sequence (Q2TB90 whole entry): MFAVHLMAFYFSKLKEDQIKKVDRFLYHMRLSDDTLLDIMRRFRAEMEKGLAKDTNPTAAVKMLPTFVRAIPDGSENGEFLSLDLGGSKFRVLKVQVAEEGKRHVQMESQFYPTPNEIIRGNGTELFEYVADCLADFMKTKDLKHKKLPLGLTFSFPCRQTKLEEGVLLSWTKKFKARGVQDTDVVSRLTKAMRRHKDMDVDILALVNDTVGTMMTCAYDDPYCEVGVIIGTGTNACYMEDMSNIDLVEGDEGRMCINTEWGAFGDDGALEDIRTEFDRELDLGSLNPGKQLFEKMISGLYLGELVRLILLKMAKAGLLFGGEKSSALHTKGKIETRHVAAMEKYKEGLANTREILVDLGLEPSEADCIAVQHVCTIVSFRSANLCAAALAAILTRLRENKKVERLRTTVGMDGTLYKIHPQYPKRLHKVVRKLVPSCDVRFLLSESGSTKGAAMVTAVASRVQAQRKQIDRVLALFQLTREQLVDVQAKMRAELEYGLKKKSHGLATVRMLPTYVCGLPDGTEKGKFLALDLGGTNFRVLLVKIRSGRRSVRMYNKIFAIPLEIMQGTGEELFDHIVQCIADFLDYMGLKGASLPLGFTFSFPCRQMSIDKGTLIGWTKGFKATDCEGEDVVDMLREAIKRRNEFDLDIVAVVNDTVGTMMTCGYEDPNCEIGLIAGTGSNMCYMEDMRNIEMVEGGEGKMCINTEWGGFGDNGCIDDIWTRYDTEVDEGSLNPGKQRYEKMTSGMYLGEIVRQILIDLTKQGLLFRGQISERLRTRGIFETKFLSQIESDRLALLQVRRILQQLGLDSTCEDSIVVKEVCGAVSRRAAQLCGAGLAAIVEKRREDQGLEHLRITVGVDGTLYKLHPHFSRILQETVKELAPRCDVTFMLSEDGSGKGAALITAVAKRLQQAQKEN

[9] = target: T1, Small ubiquitin-related modifier 1; experiment: SUMO1 protein interaction blockers, potency – biochemical, fluorescence polarization, uHTS hits, dose response (AID 624382); assay type: functional; conditions: read-out: IC50_Mean
[10] = target: DNA (cytosine-5)-methyltransferase 1 (Homo sapiens, UniProt P26358); experiment: inhibition of DNA methylation by DNMT1 – biochemical, fluorescent molecular beacon, confirmation (AID 602386); assay type: functional
Sequence of DNA (cytosine-5)-methyltransferase 1 (P26358 whole entry): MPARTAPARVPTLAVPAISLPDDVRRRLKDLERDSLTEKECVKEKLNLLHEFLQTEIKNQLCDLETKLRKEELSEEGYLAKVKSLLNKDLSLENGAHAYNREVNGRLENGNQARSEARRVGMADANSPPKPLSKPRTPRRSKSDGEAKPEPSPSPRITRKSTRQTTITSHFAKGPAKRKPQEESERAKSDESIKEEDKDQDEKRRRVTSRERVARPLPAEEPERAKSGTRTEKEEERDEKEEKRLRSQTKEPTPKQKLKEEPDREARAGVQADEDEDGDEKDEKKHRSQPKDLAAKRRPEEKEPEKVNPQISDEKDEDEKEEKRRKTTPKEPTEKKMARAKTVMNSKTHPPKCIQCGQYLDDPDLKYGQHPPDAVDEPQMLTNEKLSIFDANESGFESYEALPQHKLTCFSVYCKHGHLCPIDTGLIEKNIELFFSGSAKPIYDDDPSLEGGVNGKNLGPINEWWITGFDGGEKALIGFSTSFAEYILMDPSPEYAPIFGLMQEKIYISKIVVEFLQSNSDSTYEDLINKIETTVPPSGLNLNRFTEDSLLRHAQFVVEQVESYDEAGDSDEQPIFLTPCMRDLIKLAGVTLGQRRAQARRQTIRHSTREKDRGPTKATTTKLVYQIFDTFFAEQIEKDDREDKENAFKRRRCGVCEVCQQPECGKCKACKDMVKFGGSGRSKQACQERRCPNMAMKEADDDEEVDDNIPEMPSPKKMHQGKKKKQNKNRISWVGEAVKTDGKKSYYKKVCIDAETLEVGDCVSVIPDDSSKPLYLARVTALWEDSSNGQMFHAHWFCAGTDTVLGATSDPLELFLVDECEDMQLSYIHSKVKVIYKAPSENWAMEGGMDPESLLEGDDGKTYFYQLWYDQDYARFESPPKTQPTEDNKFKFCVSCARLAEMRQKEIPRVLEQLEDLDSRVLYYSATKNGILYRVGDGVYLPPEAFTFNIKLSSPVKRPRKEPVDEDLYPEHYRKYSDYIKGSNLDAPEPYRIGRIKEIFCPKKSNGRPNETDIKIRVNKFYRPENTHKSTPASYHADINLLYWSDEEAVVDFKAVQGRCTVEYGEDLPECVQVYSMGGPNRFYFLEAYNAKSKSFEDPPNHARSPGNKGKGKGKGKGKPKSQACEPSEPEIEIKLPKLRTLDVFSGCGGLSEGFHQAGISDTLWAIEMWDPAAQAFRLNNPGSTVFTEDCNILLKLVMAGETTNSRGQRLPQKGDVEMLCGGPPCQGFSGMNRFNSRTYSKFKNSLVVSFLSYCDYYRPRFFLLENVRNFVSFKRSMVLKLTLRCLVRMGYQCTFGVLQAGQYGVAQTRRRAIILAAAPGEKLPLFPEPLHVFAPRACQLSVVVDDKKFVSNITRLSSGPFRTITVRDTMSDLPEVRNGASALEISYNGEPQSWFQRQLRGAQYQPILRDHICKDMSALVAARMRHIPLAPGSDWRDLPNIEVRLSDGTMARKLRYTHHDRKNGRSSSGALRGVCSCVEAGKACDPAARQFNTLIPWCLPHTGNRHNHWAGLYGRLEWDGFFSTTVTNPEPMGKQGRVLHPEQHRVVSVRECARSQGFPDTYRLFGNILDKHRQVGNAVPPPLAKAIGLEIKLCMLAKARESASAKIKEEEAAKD

[11] = system: Vero; experiment: cells; assay type: functional; conditions: Chlorocebus sabaeus
[12] = system: BHK-21; experiment: viability loss in BHK-21 cells – cell-based, plate reader, cherry-pick samples, cytotoxicity control, dose response (AID 687030); assay type: functional; conditions: Mesocricetus auratus
[13] = system: A549; experiment: viability loss in A549 cells – cell-based, plate reader, cherry-pick samples, cytotoxicity control, dose response (AID 687028); assay type: functional; conditions: Homo sapiens
[14] = system: Vero; experiment: viability loss in Vero cells – cell-based, plate reader, cherry-pick samples, cytotoxicity control, dose response (AID 687020); assay type: functional; conditions: Chlorocebus sabaeus

Sequence of ADP-ribosylation factor GTPase-activating protein 1 (Q62848 whole entry): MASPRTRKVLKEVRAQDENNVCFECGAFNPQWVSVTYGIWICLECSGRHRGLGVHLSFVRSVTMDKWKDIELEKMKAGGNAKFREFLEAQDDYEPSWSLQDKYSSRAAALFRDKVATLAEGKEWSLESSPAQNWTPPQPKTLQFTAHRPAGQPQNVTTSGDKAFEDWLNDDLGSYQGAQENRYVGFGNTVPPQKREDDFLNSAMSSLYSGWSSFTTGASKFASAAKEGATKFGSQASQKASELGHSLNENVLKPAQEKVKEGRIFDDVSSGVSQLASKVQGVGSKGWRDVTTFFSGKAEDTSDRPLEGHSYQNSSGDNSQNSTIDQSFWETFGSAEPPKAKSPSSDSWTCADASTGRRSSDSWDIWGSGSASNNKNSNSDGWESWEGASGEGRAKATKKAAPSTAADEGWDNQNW

## COc1ccc(-n2c(SCC(N)=O)nc3sc4c(c3c2=O)CCN(C)C4)cc1
[1]
  IC50: 111 µM (inactive)

## COc1ccc(CN2CCN(c3ncccn3)CC2)c(OC)c1
[2]
  EC50: 0.322 µM (active)
[3]
  EC50: 92.5 µM (inactive)

## CCOC(=O)c1c(NC(C)=O)sc2c(OCC(O)CN(CC)CC)c(Br)ccc12 (centres undefined)
[4]
  AC50: 24.6 µM (active)
[5]
  EC50: 22.6 µM (inactive)
[6]
  AC50: 8.3 µM (active)

## O=C(/C=C/c1ccc(Br)cc1)NC(=S)Nc1ccc(S(=O)(=O)Nc2nccs2)cc1
[7]
  IC50: 3.39 µM (active)
[8]
  IC50: 17.3 µM (active)
[9]
  IC50: > 66.6 µM (inactive)
[10]
  IC50: 5.22 µM (active)

## CN(C)CCCN1c2ccccc2Sc2ccc3ccccc3c21
[11]
  CC50: 16.2 µM (active)
[12]
  AC50: 36 µM (active)

## Cc1ccc(C(C)C)c(OCCNC(=O)c2ccccc2O)c1
[13]
  AC50: 2.13 µM (active)
[14]
  AC50: 1.45 µM (active)
